This passage reports mutagenic call results from PubChem BioAssay AID1259407 (Chemical Carcinogenesis Research Information System (CCRIS), 2018).

The data set deals with CCRIS mutagenicity, Ames/micronucleus/aberration tests. Nature of the data set: CCRIS mutagenicity studies.
[1] abbreviates: Test System: AMES SALMONELLA TYPHIMURIUM, Strain/Indicator: TA98, Metabolic Activation: NONE, Method: PREINCUBATION
The mark [2] stands for this setting: Test System: AMES SALMONELLA TYPHIMURIUM, Strain/Indicator: TA100, Metabolic Activation: NONE, Method: PREINCUBATION
Setting [3] is: Test System: AMES SALMONELLA TYPHIMURIUM, Strain/Indicator: TA1535, Metabolic Activation: NONE, Method: PREINCUBATION
[4] abbreviates: Test System: AMES SALMONELLA TYPHIMURIUM, Strain/Indicator: TA100, Metabolic Activation: NONE, Method: STANDARD PLATE.

The source made the active and inactive calls. No rule for the calls is given here.

`CC(C)C(C)C`: the mutagenic call is “inactive; negative” (Test System: AMES SALMONELLA TYPHIMURIUM, Strain/Indicator: TA97, Metabolic Activation: HAMSTER, LIVER, S-9, AROCLOR 1254 (10 OR 30%), Method: PREINCUBATION); “inactive; negative” (Test System: AMES SALMONELLA TYPHIMURIUM, Strain/Indicator: TA97, Metabolic Activation: NONE, Method: PREINCUBATION); “inactive; negative” (Test System: AMES SALMONELLA TYPHIMURIUM, Strain/Indicator: TA97, Metabolic Activation: RAT, LIVER, S-9, AROCLOR 1254 (10 OR 30%), Method: PREINCUBATION); “inactive; negative” (Test System: AMES SALMONELLA TYPHIMURIUM, Strain/Indicator: TA98, Metabolic Activation: HAMSTER, LIVER, S-9, AROCLOR 1254 (10%), Method: PREINCUBATION); “inactive; negative” (Test System: AMES SALMONELLA TYPHIMURIUM, Strain/Indicator: TA98, Metabolic Activation: HAMSTER, LIVER, S-9, AROCLOR 1254 (30%), Method: DESICCATOR); “inactive; negative” (Test System: AMES SALMONELLA TYPHIMURIUM, Strain/Indicator: TA98, Metabolic Activation: HAMSTER, LIVER, S-9, AROCLOR 1254 (30%), Method: PREINCUBATION). Also, the mutagenic call is “inactive; negative” (Test System: AMES SALMONELLA TYPHIMURIUM, Strain/Indicator: TA98, Metabolic Activation: NONE, Method: DESICCATOR); “inactive; negative” under setting [1]; “inactive; negative” (Test System: AMES SALMONELLA TYPHIMURIUM, Strain/Indicator: TA98, Metabolic Activation: RAT, LIVER, S-9, AROCLOR 1254 (10%), Method: PREINCUBATION); “inactive; negative” (Test System: AMES SALMONELLA TYPHIMURIUM, Strain/Indicator: TA98, Metabolic Activation: RAT, LIVER, S-9, AROCLOR 1254 (30%), Method: DESICCATOR); “inactive; negative” (Test System: AMES SALMONELLA TYPHIMURIUM, Strain/Indicator: TA98, Metabolic Activation: RAT, LIVER, S-9, AROCLOR 1254 (30%), Method: PREINCUBATION); “inactive; negative” (Test System: AMES SALMONELLA TYPHIMURIUM, Strain/Indicator: TA100, Metabolic Activation: HAMSTER, LIVER, S-9, AROCLOR 1254 (10%), Method: PREINCUBATION). Moreover, the mutagenic call is “inactive; negative” (Test System: AMES SALMONELLA TYPHIMURIUM, Strain/Indicator: TA100, Metabolic Activation: HAMSTER, LIVER, S-9, AROCLOR 1254 (30%), Method: DESICCATOR); “inactive; negative” (Test System: AMES SALMONELLA TYPHIMURIUM, Strain/Indicator: TA100, Metabolic Activation: HAMSTER, LIVER, S-9, AROCLOR 1254 (30%), Method: PREINCUBATION); “inactive; negative” (Test System: AMES SALMONELLA TYPHIMURIUM, Strain/Indicator: TA100, Metabolic Activation: NONE, Method: DESICCATOR); “inactive; negative” under setting [2]; “inactive; negative” (Test System: AMES SALMONELLA TYPHIMURIUM, Strain/Indicator: TA100, Metabolic Activation: RAT, LIVER, S-9, AROCLOR 1254 (10%), Method: PREINCUBATION); “inactive; negative” (Test System: AMES SALMONELLA TYPHIMURIUM, Strain/Indicator: TA100, Metabolic Activation: RAT, LIVER, S-9, AROCLOR 1254 (30%), Method: DESICCATOR). Moreover, the mutagenic call (Test System: AMES SALMONELLA TYPHIMURIUM, Strain/Indicator: TA100, Metabolic Activation: RAT, LIVER, S-9, AROCLOR 1254 (30%), Method: PREINCUBATION) is “inactive; negative”; the mutagenic call (Test System: AMES SALMONELLA TYPHIMURIUM, Strain/Indicator: TA1535, Metabolic Activation: HAMSTER, LIVER, S-9, AROCLOR 1254 (10 OR 30%), Method: PREINCUBATION) is “inactive; negative”; the mutagenic call under setting [3] is “inactive; negative”; the mutagenic call (Test System: AMES SALMONELLA TYPHIMURIUM, Strain/Indicator: TA1535, Metabolic Activation: RAT, LIVER, S-9, AROCLOR 1254 (10 OR 30%), Method: PREINCUBATION) is “inactive; negative”.
In the case of `O=[N+]([O-])c1cccc2c1ccc1cccc([N+](=O)[O-])c12`, the mutagenic call (Test System: AMES SALMONELLA TYPHIMURIUM, Strain/Indicator: TA98(1,8-DNP6), Metabolic Activation: NONE, Method: STANDARD PLATE) is “active; positive”; the mutagenic call (Test System: AMES SALMONELLA TYPHIMURIUM, Strain/Indicator: TA98(NR), Metabolic Activation: NONE, Method: STANDARD PLATE) is “active; positive”; the mutagenic call (Test System: AMES SALMONELLA TYPHIMURIUM, Strain/Indicator: TA98, Metabolic Activation: NONE, Method: STANDARD PLATE) was “active; positive”; the mutagenic call under setting [4] was “active; positive”; the mutagenic call (Test System: AMES SALMONELLA TYPHIMURIUM, Strain/Indicator: YG1021, Metabolic Activation: NONE, Method: STANDARD PLATE) is “active; positive”; the mutagenic call (Test System: AMES SALMONELLA TYPHIMURIUM, Strain/Indicator: YG1024, Metabolic Activation: NONE, Method: STANDARD PLATE) was “active; positive”. In addition, the mutagenic call (Test System: AMES SALMONELLA TYPHIMURIUM, Strain/Indicator: YG1026, Metabolic Activation: NONE, Method: STANDARD PLATE) is “active; positive” and the mutagenic call (Test System: AMES SALMONELLA TYPHIMURIUM, Strain/Indicator: YG1029, Metabolic Activation: NONE, Method: STANDARD PLATE) was “active; positive”.
For the molecule `Cn1ccnc1N=O`, under setting [4], the mutagenic call was “active; positive”.
For the molecule `Cc1cc2c(nc(N)n2C)c2nc(-c3ccccc3)cnc12`, the mutagenic call (Test System: AMES SALMONELLA TYPHIMURIUM, Strain/Indicator: TA98, Metabolic Activation: RAT, LIVER, S-9, AROCLOR 1254, Method: STANDARD PLATE) is “active; positive”.
Take `O=C/C(CCl)=C(/Cl)C(=O)O`: the mutagenic call under setting [1] is “active; positive”; the mutagenic call under setting [2] was “active; positive”; the mutagenic call (Test System: AMES SALMONELLA TYPHIMURIUM, Strain/Indicator: TA104, Metabolic Activation: NONE, Method: PREINCUBATION) was “active; positive”.
On to `O=C(CCCCl)N=c1sn(C(=O)CCCCl)c2ccc(Cl)cc12`, for which the mutagenic call (Test System: AMES SALMONELLA TYPHIMURIUM, Strain/Indicator: TA100, Metabolic Activation: S-9, Method: STANDARD PLATE) was “active; positive”.
Turning to `CCCCCOc1cccc(NC(=O)O[C@@H]2CCCC[C@H]2N2CCCC2)c1`, the mutagenic call was “inactive; negative” (Test System: AMES SALMONELLA TYPHIMURIUM, Strain/Indicator: TA98, Metabolic Activation: MOUSE, LIVER, S-9, AROCLOR 1254, Method: PREINCUBATION); “inactive; negative” under setting [1]; “inactive; negative” (Test System: AMES SALMONELLA TYPHIMURIUM, Strain/Indicator: TA100, Metabolic Activation: MOUSE, LIVER, S-9, AROCLOR 1254, Method: PREINCUBATION); “inactive; negative” under setting [2]; “inactive; negative” (Test System: AMES SALMONELLA TYPHIMURIUM, Strain/Indicator: TA1535, Metabolic Activation: MOUSE, LIVER, S-9, AROCLOR 1254, Method: PREINCUBATION); “inactive; negative” under setting [3]. Besides, the mutagenic call reads like this: (Test System: AMES SALMONELLA TYPHIMURIUM, Strain/Indicator: TA1538, Metabolic Activation: MOUSE, LIVER, S-9, AROCLOR 1254, Method: PREINCUBATION) “inactive; negative”; (Test System: AMES SALMONELLA TYPHIMURIUM, Strain/Indicator: TA1538, Metabolic Activation: NONE, Method: PREINCUBATION) “inactive; negative”; (Test System: AMES SALMONELLA TYPHIMURIUM, Strain/Indicator: TA1978, Metabolic Activation: MOUSE, LIVER, S-9, AROCLOR 1254, Method: PREINCUBATION) “inactive; negative”; (Test System: AMES SALMONELLA TYPHIMURIUM, Strain/Indicator: TA1978, Metabolic Activation: NONE, Method: PREINCUBATION) “inactive; negative”; (Test System: E. COLI, Strain/Indicator: CM611 UVRA/LEXA, Metabolic Activation: MOUSE, LIVER, S-9, AROCLOR 1254, Method: PREINCUBATION) “inactive; negative”; (Test System: E. COLI, Strain/Indicator: CM611 UVRA/LEXA, Metabolic Activation: NONE, Method: PREINCUBATION) “inactive; negative”. The mutagenic call reads like this: (Test System: E. COLI, Strain/Indicator: WP2, Metabolic Activation: MOUSE, LIVER, S-9, AROCLOR 1254, Method: PREINCUBATION) “inactive; negative”; (Test System: E. COLI, Strain/Indicator: WP2, Metabolic Activation: NONE, Method: PREINCUBATION) “inactive; negative”; (Test System: E. COLI, Strain/Indicator: WP2 UVRA, Metabolic Activation: MOUSE, LIVER, S-9, AROCLOR 1254, Method: PREINCUBATION) “inactive; negative”; (Test System: E. COLI, Strain/Indicator: WP2 UVRA, Metabolic Activation: NONE, Method: PREINCUBATION) “inactive; negative”; (Test System: E. COLI, Strain/Indicator: WP67 UVRA/POLA, Metabolic Activation: MOUSE, LIVER, S-9, AROCLOR 1254, Method: PREINCUBATION) “inactive; negative”; (Test System: E. COLI, Strain/Indicator: WP67 UVRA/POLA, Metabolic Activation: NONE, Method: PREINCUBATION) “inactive; negative”.
